A short description of series [1]: refractive index (Na D-line) (dimensionless); xn = mol fraction of the nth substance listed. Particulars: 303.15 K, 101 kPa, Liquid, Standard Abbe refractometry.
Series [2] is described as follows: refractive index (Na D-line) (dimensionless). Particulars: 303.15 K; 101.33 kPa; Liquid; Standard Abbe refractometry.

Numbers after ± are expanded uncertainties.

`O=C(O)CC(=O)O` [propanedioic acid] + C[N+](C)(C)CCO.[Cl-]: the refractive index (as a rule, a measure of how strongly the sample bends light) in series [1] (x2 = 0.5) was 1.4866 ± 0.0008.

As for `C[N+](C)(C)CCO.[Cl-]` [choline chloride] + OCCO, the refractive index in series [1] (x1 = 0.333) is 1.4691 ± 0.0007.

As for `O` [water], the refractive index in series [2] worked out at 1.332 ± 0.0007.

Regarding `C[N+](C)(C)CCO.[Cl-]` [choline chloride] + OCC(O)CO, the refractive index in series [1] (x1 = 0.333) amounted to 1.4853 ± 0.0007.

These data come from the NIST ThermoML archive (doi:10.1016/j.jct.2016.10.002).
